Like-named read-outs stand apart in the source and are kept apart here.
How the values were obtained:
sodium channel = assay: [14C]guanidine flux: veratrine-evoked uptake of [14C]guanidine into rat forebrain synaptosomes (primary sodium channel assay); format: biochemical; conditions: 30° for 2½ min
Procedure, shortened: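 Synaptosomal fraction from male Wistar rat forebrain (without cerebellum/medulla), 20-25 mg wet weight/ml. Veratrine-evoked [14C]guanidine uptake at 30° for 2½ min across a compound concentration range; IC50 from concentration-effect curves, mean±sem.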

[1] = target: T1, DiHydroFolate Reductase (DHFR) (Rattus norvegicus, UniProt Q920D2); assay: Inhibition of binding of [3H]methotrexate to rat liver homogenate supernatant; conditions: for inhibition at 125 µM: read-out: [3H]mtx binding (% inhibition @ 125 μM)
T1 construct: from tissue; host or cells: rat liver homogenate supernatant
T1 sequence (Q920D2 1-187): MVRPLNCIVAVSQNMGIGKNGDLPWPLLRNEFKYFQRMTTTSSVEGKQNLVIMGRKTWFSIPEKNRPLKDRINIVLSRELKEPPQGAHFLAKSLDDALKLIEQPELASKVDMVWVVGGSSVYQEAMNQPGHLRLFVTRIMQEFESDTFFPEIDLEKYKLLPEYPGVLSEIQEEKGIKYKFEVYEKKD
Procedure, shortened: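 Displacement of [3H]methotrexate binding to rat liver homogenate supernatant, prepared at 4 °C in pH 6.0 phosphate buffer with 15 mM dithiothreitol. Values are mean±sem over the number of experiments shown.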

hERG [2] = target: T2, hERG (Homo sapiens, UniProt Q12809)
Rat microsome stability = format: in vitro ADME; conditions: 1 μM, rat liver microsomes
Procedure: Compounds were sent to BioFocus for measurement of their stability@1 μM concentration following incubation with rat liver microsomes for 40 minutes@37°.

Sodium Channel, Site 2 = format: binding, Wistar Rat; conditions: read-out: [3H]BTX-B binding Extrapolated IC50
[3] = tested on: 0.4 mm slices of rat hippocampus; assay: tissue or blood; format: cell-based; conditions: for Emax at 30 µM: Rattus norvegicus, read-out: % protection (v 1 μM TTX) (mean ± sem) (no. of expt's)
hERG [4] = target: T2, hERG; assay: hERG: inhibition of binding of [3H]astemizole to HEK-293 cells expressing human recombinant hERG; conditions: for inhibition at 10 µM: human, probe [3H]astemizole
L-Type Calcium Channels = assay: L-type calcium channels: inhibition of binding of [3H]nitrendipine to rat cerebral cortex membranes; conditions: for L-type Ca2+ % inhibition @ 10 μM: [3H]nitrendipine binding; for IC50: read-out: L-type Ca2+ IC50 (μM) (extrapolated from 10 μM inh'n), extrapolated assuming binding slope 1.0
hERG [5] = target: T2, hERG; assay: in vitro
[6] = 30 μM, iodoacetate 400 μM insult, slice ATP

T2 sequence (Q12809 whole entry): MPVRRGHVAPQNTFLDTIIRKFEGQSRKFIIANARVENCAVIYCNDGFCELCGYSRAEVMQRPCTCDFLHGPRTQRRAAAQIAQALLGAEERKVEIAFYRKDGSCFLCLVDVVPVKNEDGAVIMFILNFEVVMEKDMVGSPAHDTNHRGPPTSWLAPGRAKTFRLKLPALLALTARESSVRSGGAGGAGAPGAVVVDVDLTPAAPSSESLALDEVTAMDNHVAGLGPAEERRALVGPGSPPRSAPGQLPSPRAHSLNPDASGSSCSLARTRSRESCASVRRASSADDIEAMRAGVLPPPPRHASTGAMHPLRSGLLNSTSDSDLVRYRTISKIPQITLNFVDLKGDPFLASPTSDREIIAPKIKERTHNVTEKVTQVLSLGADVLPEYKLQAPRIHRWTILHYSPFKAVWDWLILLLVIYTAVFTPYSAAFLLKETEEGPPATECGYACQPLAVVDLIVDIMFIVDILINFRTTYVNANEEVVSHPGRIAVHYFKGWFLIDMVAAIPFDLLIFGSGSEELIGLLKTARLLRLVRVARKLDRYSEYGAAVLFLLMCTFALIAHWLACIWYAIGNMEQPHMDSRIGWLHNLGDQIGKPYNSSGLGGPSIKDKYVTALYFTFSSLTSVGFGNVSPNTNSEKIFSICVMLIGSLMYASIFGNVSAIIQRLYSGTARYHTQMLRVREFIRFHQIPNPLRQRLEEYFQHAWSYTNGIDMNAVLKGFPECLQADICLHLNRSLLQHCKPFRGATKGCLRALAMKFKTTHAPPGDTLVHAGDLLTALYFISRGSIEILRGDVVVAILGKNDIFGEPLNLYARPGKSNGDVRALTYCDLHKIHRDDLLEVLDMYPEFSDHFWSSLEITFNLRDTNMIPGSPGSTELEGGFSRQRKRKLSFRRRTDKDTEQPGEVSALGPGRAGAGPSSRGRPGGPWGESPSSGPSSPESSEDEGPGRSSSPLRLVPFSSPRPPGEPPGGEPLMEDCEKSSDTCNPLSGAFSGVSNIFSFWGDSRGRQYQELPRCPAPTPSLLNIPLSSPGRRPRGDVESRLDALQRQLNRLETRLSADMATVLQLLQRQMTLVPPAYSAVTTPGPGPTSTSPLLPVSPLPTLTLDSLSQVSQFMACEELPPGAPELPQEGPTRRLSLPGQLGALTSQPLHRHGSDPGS

Compound: 6-Adamantyl-3,5-diamino-1,2,4-triazine [CEN-83]
- IC50 (sodium channel): 40.8 µM
- [3H]mtx binding (% inhibition @ 125 μM) ([1]; 125 μM): −5%
- IC50 (hERG [2]): 52 µM

Compound: Nc1nnc(-c2cccc(Cl)c2Cl)c(N)n1 [CEN-1, Lamotrigine, reference compound]
- IC50 (sodium channel): 219 µM
- Microsome stability % metabolized (40 min incubation 37°) (Rat microsome stability): 0.5%
- IC50 (Sodium Channel, Site 2): > 200 µM
- Emax at 30 µM [3, 6]: 41%

Compound: Nc1ncc(-c2cc(Cl)cc(Cl)c2Cl)c(N)n1 [CEN-47, 2,4-Diamino-5-(2,3,5-trichlorophenyl)pyrimidine, reference compound]
- IC50 (sodium channel): 13.2 µM
- Emax at 30 µM [3, 6]: 98%
- IC50 (hERG [4]): 35 µM
- inhibition at 10 µM (hERG [4]): 22%

Compound: N=c1nc(N)c(-c2cccc(Cl)c2Cl)nn1CC(F)(F)F [CEN-67, 5(3)-Amino-6-(2,3-dichlorophenyl)-2,3(2,5)-dihydro-3(5)-imino-2-(2,2,2-trifluoroethyl)-1,2,4-triazine]
- IC50 (sodium channel): 4.3 µM
- inhibition at 125 µM ([1]; 125 μM): 11%
- L-type Ca2+ % inhibition @ 10 μM (L-Type Calcium Channels): −16%
- IC50 (L-Type Calcium Channels): > 190 µM
- Microsome stability % metabolized (40 min incubation 37°) (Rat microsome stability): 0.5%
- Emax at 30 µM [3, 6]: 3%
- IC50 (hERG [4]): 57 µM
- inhibition at 10 µM (hERG [4]): 15%

Compound: Nc1nnc(-c2ccc3ccccc3c2)c(N)n1 [CEN-73, 3,5-Diamino-6-(2-naphthyl)-1,2,4-triazine]
- IC50 (sodium channel): 81.2 µM
- inhibition at 125 µM ([1]; 125 μM): 5%
- L-type Ca2+ % inhibition @ 10 μM (L-Type Calcium Channels): 8%
- IC50 (L-Type Calcium Channels): 115 µM
- Microsome stability % metabolized (40 min incubation 37°) (Rat microsome stability): 62.5%
- melting point: 215 to 216 °C
- IC50 (hERG [4]): > 200 µM
- inhibition at 10 µM (hERG [4]): 3%

Compound: Nc1nnc(-c2sc(Cl)c(Cl)c2Cl)c(N)n1 [CEN-79, 3,5-Diamino-6-[2-(3,4,5 trichlorothienyl)]-1,2,4-triazine]
- IC50 (sodium channel): 209 µM
- inhibition at 125 µM ([1]; 125 μM): -1%
- L-type Ca2+ % inhibition @ 10 μM (L-Type Calcium Channels): 17%
- IC50 (L-Type Calcium Channels): 48.8 µM
- Microsome stability % metabolized (40 min incubation 37°) (Rat microsome stability): 0.0%
- melting point: 263 to 265 °C
- IC50 (hERG [4]): > 200 µM
- inhibition at 10 µM (hERG [4]): 3%

Compound: Nc1nnc(-c2cccc(Oc3ccccc3)c2)c(N)n1 [CEN-84, 3,5-Diamino-6-(3-phenoxphenyl)-1,2,4-triazine]
- IC50 (sodium channel): 43.7 µM
- inhibition at 125 µM ([1]; 125 μM): -4%
- L-type Ca2+ % inhibition @ 10 μM (L-Type Calcium Channels): 7%
- IC50 (L-Type Calcium Channels): 133 µM
- Microsome stability % metabolized (40 min incubation 37°) (Rat microsome stability): 33.0%
- melting point: 152 to 153 °C
- IC50 (hERG [4]): 101 µM
- inhibition at 10 µM (hERG [4]): 9%

Compound: N=c1nc(N)c(-c2cc(Cl)cc(Cl)c2Cl)nn1CC(F)F [CEN-85, 5(3)-Amino-6-(2,3,5-trichlorophenyl)-2,3(2,5)-dihydro-3(5)-imino-2-(2,2-difluoroethyl)-1,2,4-triazine]
- IC50 (sodium channel): 3.6 µM
- inhibition at 125 µM ([1]; 125 μM): -5%
- L-type Ca2+ % inhibition @ 10 μM (L-Type Calcium Channels): −15%
- IC50 (L-Type Calcium Channels): > 190 µM
- melting point: 168 to 170 °C (dec.)
- IC50 (hERG [4]): 16 µM
- inhibition at 10 µM (hERG [4]): 39%

Compound: Nc1cnc(-c2cc(Cl)cc(Cl)c2Cl)c(N)n1 [CEN-86, 2,6-Diamino-3-(2,3,5-trichlorophenyl)pyrazine]
- IC50 (sodium channel): 14.1 µM
- inhibition at 125 µM ([1]; 125 μM): -5%
- L-type Ca2+ % inhibition @ 10 μM (L-Type Calcium Channels): 9%
- IC50 (L-Type Calcium Channels): 101 µM
- Emax at 30 µM [3, 6]: 98%
- IC50 (hERG [4]): > 200 µM
- inhibition at 10 µM (hERG [4]): 1%

Compound: Nc1cnc(-c2cccc(Cl)c2Cl)c(N)n1 [CEN-87, 2,6-Diamino-3-(2,3-dichlorophenyl)pyrazine]
- IC50 (sodium channel): 288 µM
- inhibition at 125 µM ([1]; 125 μM): -5%
- L-type Ca2+ % inhibition @ 10 μM (L-Type Calcium Channels): 7%
- IC50 (L-Type Calcium Channels): 133 µM
- melting point: 150 to 153 °C
- IC50 (hERG [4]): > 200 µM
- inhibition at 10 µM (hERG [4]): 3%

Compound: Nc1nnc(-c2cc(C(F)(F)F)cc(C(F)(F)F)c2)c(N)n1 [CEN-92, 3,5-Diamino-6-(3,5-bistrifluoromethylphenyl)-1,2,4-triazine]
- IC50 (sodium channel; listed as 92): 144 µM
- [3H]mtx binding (% inhibition @ 125 μM) ([1]; 125 μM, listed as 92, 125 µM): 15%
- L-type Ca2+ % inhibition @ 10 μM (L-Type Calcium Channels): 3%
- IC50 (L-Type Calcium Channels): > 190 µM
- Microsome stability % metabolized (40 min incubation 37°) (Rat microsome stability): 0.0%
- Emax at 30 µM [3, 6]: 32%
- IC50 (hERG [4]): > 200 µM
- inhibition at 10 µM (hERG [4]): 4%

Compound: N=c1nc(N)c(-c2ccccc2Oc2ccccc2)nn1CC(F)(F)F [CEN-98, 5(3)-Amino-6-(2-phenoxyphenyl)-2,3(2,5)-dihydro-3(5)-imino-2-(1,1,1-trifluoroethyl)-1,2,4-triazine]
- IC50 (sodium channel): 8.9 µM
- inhibition at 125 µM ([1]; 125 μM): 41%
- L-type Ca2+ % inhibition @ 10 μM (L-Type Calcium Channels): −18%
- IC50 (L-Type Calcium Channels): > 190 µM
- Microsome stability % metabolized (40 min incubation 37°) (Rat microsome stability): 6.0%
- Emax at 30 µM [3, 6]: 11%
- IC50 (hERG [4]): 46 µM
- inhibition at 10 µM (hERG [4]): 18%

Compound: Cn1nc(-c2cc(C(F)(F)F)cc(C(F)(F)F)c2)c(N)nc1=N [CEN-99, 5(3)-Amino-6-[3,5-(bis-trifluoromethyl)phenyl]-2,3(2,5)-dihydro-3(5)-imino-2-methyl-1,2,4-triazine methanesulfonate]
- IC50 (sodium channel): 135 µM
- inhibition at 125 µM ([1]; 125 μM): -1%
- Microsome stability % metabolized (40 min incubation 37°) (Rat microsome stability): 0.0%
- IC50 (hERG [4]): 34 µM
- inhibition at 10 µM (hERG [4]): 23%

Compound: CCOc1ccc2ccccc2c1-c1nnc(N)nc1N [CEN-110]
- IC50 (sodium channel): 135 µM
- inhibition at 125 µM ([1]; 125 μM): -23%
- Microsome stability % metabolized (40 min incubation 37°) (Rat microsome stability): 61.5%
- melting point: 178 to 180 °C
- IC50 (hERG [4]): > 200 µM
- inhibition at 10 µM (hERG [4]): -12%

Compound: Nc1nnc(C(c2ccccc2)c2ccccc2)c(N)n1 [CEN-130, 3,5-Diamino-6-(diphenylmethy)-1,2,4-triazine]
- IC50 (sodium channel): 20.4 µM
- inhibition at 125 µM ([1]; 125 μM): 2%
- Emax at 30 µM [3, 6]: 39%
- IC50 (hERG [4]): > 200 µM
- inhibition at 10 µM (hERG [4]): -2%

Compound: Nc1nnc(-c2cc(OCC(F)(F)F)ccc2OCC(F)(F)F)c(N)n1 [CEN-140, 3,5-Diamino-6-[2,5-bis(2,2,2-trifluoroethoxy)phenyl]-1,2,4-triazine]
- IC50 (sodium channel): 229 µM
- inhibition at 125 µM ([1]; 125 μM): 3%
- Emax at 30 µM [3, 6]: -11%

Compound: Nc1nnc(C2(c3ccc(Cl)cc3)CCC2)c(N)n1 [CEN-152, 3,5-Diamino-6-[1-(4-chlorophenyl)-1-cyclobuty]-1,2,4-triazine]
- IC50 (sodium channel): 479 µM
- inhibition at 125 µM ([1]; 125 μM): 1%
- Emax at 30 µM [3, 6]: -10%

Compound: Nc1nnc2c(n1)-c1cccc3cccc-2c13 [CEN-155]
- IC50 (sodium channel): 34 µM
- inhibition at 125 µM [1]: -6%
- inhibition at 10 µM (hERG [5]): 22%
- IC50 (hERG [4]): 35 µM

Compound: Nc1nnc(-c2ccccc2OCc2ccccc2)c(N)n1 [CEN-160, 3,5-Diamino-6-(2-Benzyloxyphenyl)-1,2,4-triazine]
- IC50 (sodium channel): 295 µM
- inhibition at 125 µM ([1]; 125 μM): -11%
- Emax at 30 µM [3, 6]: 0%
- IC50 (hERG [4]): > 200 µM
- inhibition at 10 µM (hERG [4]): 0%

Compound: Nc1nnc(C(c2ccccc2)C2CCCC2)c(N)n1 (centres unmarked) [CEN-163, 3,5-Diamino-6-(1-cyclopentyl-1-phenylmethy)-1,2,4-triazine]
- IC50 (sodium channel): 8 µM
- inhibition at 125 µM ([1]; 125 μM): 13%
- Emax at 30 µM [3, 6]: 56%
- IC50 (hERG [4]): 81 µM
- inhibition at 10 µM (hERG [4]): 11%

Compound: O=C1NC(=O)C(c2ccccc2)(c2ccccc2)N1 [DPH, reference compound]
- % protection (v 1 μM TTX) (mean ± sem) (no. of expt's) [3, 6]: 48%

Compound: CN1CCN(c2ncc(-c3cc(Cl)cc(Cl)c3Cl)c(N)n2)CC1 [Sipatrigine, reference compound]
- Emax at 30 µM [3, 6]: 58%

Compound: NC1=N[C@H](O)[C@H]2[C@H]3O[C@]4(O)O[C@@H]([C@@H](O)[C@@]2(N1)[C@@H]4O)[C@]3(O)CO [TTX, tetrodotoxin, reference compound]
- % protection (v 1 μM TTX) [3]: 100%

— US8691818B2, “Cyclic triazo and diazo sodium channel blockers” (University Of Greenwich, priority 2008, dated 2014)
